These results are taken from patent US7902175B2, “Aminopropanol derivatives” (Novartis AG, priority 2003, dated 2011).

Where only a bound is given, the exact number is not on record here.

One data set relates to human S1P receptors. Kind of data set: GTPγS binding assay, S1P receptors in general. The format is biochemical. The text has this: (§1) The compounds of the invention have binding affinity to individual human S1P receptors as determined in following assays:
(§2) Transient Transfection of Human S1P Receptors into HEK293 Cells
S1P receptors and Gi proteins are cloned, and equal amounts of 4 cDNAs for the S1P receptor, Gi-α, Gi-β and Gi-γ are mixed and used to transfect monolayers of HEK293 cells using the calcium phosphate precipitate method (M. Wigler et al., Cell. 1977; 11; 223 and DS. Im et al., Mol. Pharmacol. 2000; 57; 753). Briefly, a DNA mixture containing 25 μg of DNA and 0.25 M CaCl is added to HEPES-buffered 2 mM Na2HPO4. Subconfluent monolayers of HEK293 cells are poisoned with 25 […], and the DNA precipitate is then applied to the cells. […] Protein concentration is determined spectroscopically by Bradford protein assay. […]
GTPγS binding experiments are performed as described by D S. Im et al., Mol. Pharmacol. 2000; 57:753. Ligand-mediated GTPγS binding to G-proteins is measured in GTP binding buffer (in mM: 50 HEPES, 100 NaCl, 10 MgCl2, pH 7.5) using 25 μg of a membrane preparation from transiently transfected HEK293 cells. […] Bound GTPγS is separated from unbound using the Brandel harvester (Gaithersburg, Md.) and counted with a liquid scintillation counter.

The next data set addresses T1, S1P-4 (Homo sapiens, UniProt O95977).
T1 construct: expressed in transfected cells; host or cells: HEK293 (transient, calcium phosphate); crude membranes
T1 sequence (O95977 1-384): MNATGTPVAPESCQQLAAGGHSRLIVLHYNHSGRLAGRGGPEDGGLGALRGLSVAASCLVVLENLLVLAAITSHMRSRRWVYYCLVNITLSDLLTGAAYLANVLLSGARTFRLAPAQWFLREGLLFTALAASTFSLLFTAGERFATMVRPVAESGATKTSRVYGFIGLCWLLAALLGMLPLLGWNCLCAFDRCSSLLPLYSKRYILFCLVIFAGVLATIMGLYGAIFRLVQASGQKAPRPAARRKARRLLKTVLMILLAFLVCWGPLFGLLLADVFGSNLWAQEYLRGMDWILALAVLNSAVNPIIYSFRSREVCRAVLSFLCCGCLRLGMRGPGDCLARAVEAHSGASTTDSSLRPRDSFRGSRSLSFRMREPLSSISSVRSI
As to the kind of experiment: GTPγS binding assay using S1P receptor/HEK293 membrane preparations. The format is biochemical. The settings on record: for EC50: GTPγS binding, transiently transfected HEK293 membranes.
Source text: as §1, §2
(§3) S1P receptors and Gi proteins are cloned, and equal amounts of 4 cDNAs for the S1P receptor, Gi-α, Gi-β and Gi-γ are mixed and used to transfect monolayers of HEK293 cells using the calcium phosphate precipitate method (M. Wigler et al., Cell. 1977; 11; 223 and DS. Im et al., Mol. Pharmacol. 2000; 57; 753). Briefly, a DNA mixture containing 25 μg of DNA and 0.25 M CaCl is added to HEPES-buffered 2 mM Na2HPO4. Subconfluent monolayers of HEK293 cells are poisoned with 25 […], and the DNA precipitate is then applied to the cells. After 4 h, the monolayers are washed with phosphate-buffered saline and refed media (90% 1:1 Dulbecco's modified essential media (DMEM):F-12+10% fetal bovine serum). The cells are harvested 48-72 h after addition of the DNA by scraping in HME buffer (in mM: 20 HEPES, 5 MgCl2, 1 EDTA, pH 7.4) containing 10% sucrose on ice, and disrupted using a Dounce homogenizer. After centrifugation at 800×g, the supernatant is diluted with HME without sucrose and centrifuged at 100,000×g for 1 h. The resulting pellet is rehomogenized and centrifuged a second hour at 100,000×g. This crude membrane pellet is resuspended in HME with sucrose, aliquoted, and snap-frozen by immersion in liquid nitrogen. The membranes are stored at […] Protein concentration is determined spectroscopically by Bradford protein assay.
(§4) GTPγS Binding Assay Using S1P Receptor/HEK293 Membrane Preparations
(§5) GTPγS binding experiments are performed as described by D S. Im et al., Mol. Pharmacol. 2000; 57:753. Ligand-mediated GTPγS binding to G-proteins is measured in GTP binding buffer (in mM: 50 HEPES, 100 NaCl, 10 MgCl2, pH 7.5) using 25 μg of a membrane preparation from transiently transfected HEK293 cells. Ligand is added to membranes in the presence of 10 μM GDP and 0.1 nM [^35S]GTPγS (1200 Ci/mmol) and incubated at 30° C. for 30 min. Bound GTPγS is separated from unbound using the Brandel harvester (Gaithersburg, Md.) and counted with a liquid scintillation counter.
In general terms: Binding of GTPγS marks nucleotide exchange on a G protein.

The target in the next data set is T2, S1P-3 (Homo sapiens, UniProt Q99500).
T2 construct: expressed in transfected cells; host or cells: HEK293 (transient, calcium phosphate); crude membranes
T2 sequence (Q99500 whole entry): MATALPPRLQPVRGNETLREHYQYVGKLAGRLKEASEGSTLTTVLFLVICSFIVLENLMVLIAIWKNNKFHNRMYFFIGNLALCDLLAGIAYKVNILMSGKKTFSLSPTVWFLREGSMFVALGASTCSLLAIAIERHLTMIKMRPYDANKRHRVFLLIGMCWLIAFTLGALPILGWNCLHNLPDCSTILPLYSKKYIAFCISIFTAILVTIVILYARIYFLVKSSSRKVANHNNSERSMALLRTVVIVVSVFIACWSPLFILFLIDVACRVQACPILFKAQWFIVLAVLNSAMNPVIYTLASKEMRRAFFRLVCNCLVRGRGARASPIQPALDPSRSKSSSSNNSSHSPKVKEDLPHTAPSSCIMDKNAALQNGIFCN
The description is as above. Type of data set: biochemical. How it is done:
as §2, §3, §4, §5

A further data set deals with T3, S1P-1 (Homo sapiens, UniProt P21453).
T3 construct: expressed in transfected cells; host or cells: HEK293 (transient, calcium phosphate); crude membranes
T3 sequence (P21453 whole entry): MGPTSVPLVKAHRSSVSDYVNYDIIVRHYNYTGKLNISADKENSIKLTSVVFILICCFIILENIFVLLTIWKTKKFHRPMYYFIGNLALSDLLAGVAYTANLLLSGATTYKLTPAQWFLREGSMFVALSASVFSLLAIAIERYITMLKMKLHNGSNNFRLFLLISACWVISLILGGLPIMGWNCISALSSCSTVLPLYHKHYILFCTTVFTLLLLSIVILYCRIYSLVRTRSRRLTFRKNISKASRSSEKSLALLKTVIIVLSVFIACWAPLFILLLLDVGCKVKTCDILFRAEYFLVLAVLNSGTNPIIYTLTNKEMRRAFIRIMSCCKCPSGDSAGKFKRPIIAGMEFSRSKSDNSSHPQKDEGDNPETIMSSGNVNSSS
The data set is described as above. Type of data set: biochemical. How it is done: as §2
as §3, with “Briefly,” for “S1P receptors and Gi proteins are cloned, and equal amounts of 4 cDNAs for the S1P receptor, Gi-α, Gi-β and Gi-γ are mixed and used to transfect monolayers of HEK293 cells using the calcium phosphate precipitate method (M. Wigler et al., Cell. 1977; 11; 223 and DS. Im et al., Mol. Pharmacol. 2000; 57; 753). Briefly,”
as §4
(§6) Ligand-mediated GTPγS binding to G-proteins is measured in GTP binding buffer (in mM: 50 HEPES, 100 NaCl, 10 MgCl2, pH 7.5) using 25 μg of a membrane preparation from transiently transfected HEK293 cells. Ligand is added to membranes in the presence of 10 μM GDP and 0.1 nM [^35S]GTPγS (1200 Ci/mmol) and incubated at 30° C. for 30 min. Bound GTPγS is separated from unbound using the Brandel harvester (Gaithersburg, Md.) and counted with a liquid scintillation counter.

The target of the next data set is T4, S1P-5 (Homo sapiens, UniProt Q9H228).
T4 construct: expressed in transfected cells; host or cells: HEK293 (transient, calcium phosphate); crude membranes
T4 sequence (Q9H228 whole entry): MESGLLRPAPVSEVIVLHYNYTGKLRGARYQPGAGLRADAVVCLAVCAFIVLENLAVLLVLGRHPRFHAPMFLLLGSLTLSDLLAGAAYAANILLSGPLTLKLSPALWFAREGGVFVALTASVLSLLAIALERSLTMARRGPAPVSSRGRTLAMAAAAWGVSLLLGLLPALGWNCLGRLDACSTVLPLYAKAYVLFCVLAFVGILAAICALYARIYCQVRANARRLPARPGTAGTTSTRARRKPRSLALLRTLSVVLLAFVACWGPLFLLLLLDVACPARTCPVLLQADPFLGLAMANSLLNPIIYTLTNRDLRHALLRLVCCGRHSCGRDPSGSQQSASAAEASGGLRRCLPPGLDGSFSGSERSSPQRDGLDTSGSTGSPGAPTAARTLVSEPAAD
The description is as above. The format is biochemical. How it is done:
as §2
as §3, with “Briefly,” for “S1P receptors and Gi proteins are cloned, and equal amounts of 4 cDNAs for the S1P receptor, Gi-α, Gi-β and Gi-γ are mixed and used to transfect monolayers of HEK293 cells using the calcium phosphate precipitate method (M. Wigler et al., Cell. 1977; 11; 223 and DS. Im et al., Mol. Pharmacol. 2000; 57; 753). Briefly,”
as §4, §6

The target of the next data set is T5, S1P-2 (Homo sapiens, UniProt O95136).
T5 construct: expressed in transfected cells; host or cells: HEK293 (transient, calcium phosphate); crude membranes
T5 sequence (O95136 whole entry): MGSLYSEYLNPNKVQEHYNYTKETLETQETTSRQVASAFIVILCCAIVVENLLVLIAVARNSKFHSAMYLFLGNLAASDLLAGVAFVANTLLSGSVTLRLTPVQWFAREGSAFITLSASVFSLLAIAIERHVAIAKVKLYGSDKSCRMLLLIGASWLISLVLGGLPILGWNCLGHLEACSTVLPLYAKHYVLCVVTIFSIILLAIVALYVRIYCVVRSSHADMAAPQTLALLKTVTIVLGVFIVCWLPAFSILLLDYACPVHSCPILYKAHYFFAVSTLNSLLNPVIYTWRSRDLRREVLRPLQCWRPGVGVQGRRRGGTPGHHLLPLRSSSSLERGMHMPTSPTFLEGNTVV
The data set is described as above. Type of data set: biochemical. The conditions noted are these: transiently transfected HEK293 membranes. How it is done: as §2, §3, §4, §5

A short description of data set [1]: Chiral HPLC determination of FTY720-phosphate enantiomers in blood after dosing 14C-labeled FTY720. Type of data set: in vivo. The settings on record: rats, orally 7.5 mg/kg or intravenous infusion 4 mg/kg; blood e.g. 3 or 72 hours after dosing. The source says: In a further aspect, the present invention provides a method of determining the amount of the R and/or S isomers of a compound of formula II present in a sample, comprising (a) reacting the compound of formula II present in the sample with benzene-1,2-dicarbaldehyde to form a compound of formula I, and separating the R and S isomers of the compound of formula I by HPLC. The HPLC is preferably performed as described above, using a chiral ion-exchange phase e.g. based on quinine carbamate or quinidine carbamate. The compounds of formula I are useful as intermediates in such a method. The sample may be e.g. a sample derived from a bodily fluid e.g. blood, plasma, saliva, or urine, and may be first subjected to one or more separation steps, (e.g. extraction with methanol and/or non-chiral HPLC) in order to separate the compound of formula II from the fluid. By such a method the amount of the active R or S enantiomer in the sample may be determined. […]
For example, achiral 14C-labeled FTY720 is administered to rats either orally (7.5 mg/kg) or by intravenous infusion (4 mg/kg). […] The derivative is spiked with unlabelled OPA-derivatized R and S FTY720-phosphate as retention time markers (monitored by UV at 215 nm) and subjected to chiral HPLC separation using a ProntoSIL Chiral AX QN-1 column.

The mark [2] stands for this setting: GTPγS binding, transiently transfected HEK293 membranes.

Turning to `CCCCCCCCc1ccc(CCC(N)(CO)COP(=O)(O)O)cc1` (single isomer, unassigned) [(R)-FTY720-P, phosphoric acid mono-[2-amino-2-hydroxymethyl-4-(4-octyl-phenyl)-butyl]ester], the “agonistic effects on S1P receptors” value with human S1P receptors is given as “only at very high concentrations”. The EC50 (commonly the concentration that produces a half-maximal response) at S1P-4 is 80.1 nM.

Take `CCCCCCCCc1ccc(CCC(N)(CO)COP(=O)(O)O)cc1` (single isomer, unassigned) [(S)-FTY720-P, phosphoric acid mono-[2-amino-2-hydroxymethyl-4-(4-octyl-phenyl)-butyl]ester]: the “agonist character on S1P3” value on S1P-3 (in the low nanomolar range) is given as “full agonist”. For the same compound, the “agonist character on S1P1” value on S1P-1 (in the low nanomolar range) was “full agonist”. Also, the “agonist character on S1P5” value on S1P-5 (in the low nanomolar range) is “partial agonist”. At S1P-4, the EC50 turned out to be 0.75 nM. For the same compound, the “agonist character on S1P4” value at S1P-4 (in the low nanomolar range) is on record as “partial agonist”.

With `N[C@@](CO)(CCc1ccc(OCCc2ccc(C(F)(F)F)cc2)cc1)COP(=O)(O)O` [Ex. 14, Phosphoric Acid mono-((R)-2-amino-2-hydroxymethyl-4-{4-[2-(4-trifluoromethyl-phenyl)-ethoxy]-phenyl}-butyl)ester], the EC50 at S1P-3 (setting [2]) is 140 nM; on S1P-2, above 10000 nM; on S1P-1 (setting [2]), 0.4 nM; on S1P-5 (setting [2]), 7.7 nM; at S1P-4, 6.6 nM.

`CCCCCCCCc1ccc(CCC(N)(CO)CO)cc1` [FTY720, 2-amino-2-[2-(4-octylphenyl)ethyl]propane-1,3-diol]: in data set [1], the “R-enantiomer of [14C]FTY720-phosphate in blood” value is “not detectable” and the “enantiomer of the metabolite [14C]FTY720-phosphate in all blood samples” value is on record as “exclusively the pharmacologically active S-enantiomer”.
